Experimental data from ChEMBL document CHEMBL1144234, “Novel design principle validated: glucopyranosylidene-spiro-oxathiazole as new nanomolar inhibitor of glycogen phosphorylase, potential antidiabetic agent” (Bioorg Med Chem Lett, 2008).

biological target: T1, Glycogen phosphorylase, muscle form (Oryctolagus cuniculus, UniProt P00489)
T1 sequence (P00489 whole entry): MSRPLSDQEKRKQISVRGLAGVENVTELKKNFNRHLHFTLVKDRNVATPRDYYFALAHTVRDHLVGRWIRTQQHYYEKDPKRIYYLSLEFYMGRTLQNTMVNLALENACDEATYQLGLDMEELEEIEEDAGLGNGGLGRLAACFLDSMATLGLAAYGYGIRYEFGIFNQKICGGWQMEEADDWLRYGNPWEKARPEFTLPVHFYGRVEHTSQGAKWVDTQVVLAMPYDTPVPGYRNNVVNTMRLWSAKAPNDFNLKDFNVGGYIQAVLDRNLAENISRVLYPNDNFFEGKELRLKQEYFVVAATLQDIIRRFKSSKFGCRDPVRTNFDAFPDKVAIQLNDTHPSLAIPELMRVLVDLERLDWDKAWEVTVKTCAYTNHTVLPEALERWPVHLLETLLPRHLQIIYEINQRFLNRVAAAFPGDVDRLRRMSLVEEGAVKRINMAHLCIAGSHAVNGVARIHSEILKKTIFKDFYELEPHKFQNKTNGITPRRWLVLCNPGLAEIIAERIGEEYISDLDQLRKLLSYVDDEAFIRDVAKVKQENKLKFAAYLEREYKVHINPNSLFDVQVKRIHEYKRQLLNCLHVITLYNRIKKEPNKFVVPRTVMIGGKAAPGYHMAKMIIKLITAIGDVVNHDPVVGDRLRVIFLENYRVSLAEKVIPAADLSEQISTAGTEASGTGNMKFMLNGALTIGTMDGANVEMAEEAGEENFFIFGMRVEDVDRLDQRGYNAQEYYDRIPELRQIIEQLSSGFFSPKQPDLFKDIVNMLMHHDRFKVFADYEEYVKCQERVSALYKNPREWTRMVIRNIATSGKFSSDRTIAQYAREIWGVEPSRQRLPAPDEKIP
Description: Inhibition of rabbit muscle glycogen phosphorylase b

SMILES	Ki
O=C(N[C@@H]1O[C@H](CO)[C@@H](O)[C@H](O)[C@H]1O)c1cccc2ccccc12	444 µM
OC[C@H]1O[C@]2(ON=C(c3ccc(F)cc3)S2)[C@H](O)[C@@H](O)[C@@H]1O	28 µM
O=C(NC(=O)c1ccc2ccccc2c1)N[C@@H]1O[C@H](CO)[C@@H](O)[C@H](O)[C@H]1O	0.35 µM
O=C(NC1O[C@H](CO)[C@@H](O)[C@H](O)[C@H]1O)c1ccccc1 (single isomer, unassigned)	81 µM
CC(=O)NC1O[C@H](CO)[C@@H](O)[C@H](O)[C@H]1O (single isomer, unassigned)	32 µM

Second part, the compound after the results:

Ki	SMILES
305 µM	CC(=O)NC(=O)N[C@@H]1O[C@H](CO)[C@@H](O)[C@H](O)[C@H]1O
5 µM	O=C(NC(=O)c1cccc2ccccc12)N[C@@H]1O[C@H](CO)[C@@H](O)[C@H](O)[C@H]1O
26 µM	OC[C@H]1O[C@]2(ON=C(c3ccccc3)S2)[C@H](O)[C@@H](O)[C@@H]1O
8 µM	COc1ccc(C2=NO[C@]3(O[C@H](CO)[C@@H](O)[C@H](O)[C@H]3O)S2)cc1
